From ChEMBL document CHEMBL5390286, “Discovery of Ingenane Diterpenoids from Euphorbia hylonoma as Antiadipogenic Agents” (J Nat Prod, 2023) come the findings set out here.

Series [1] relates to 3T3-L1. As to the kind of experiment: Anti-adipogenic efficacy in mouse 3T3-L1 cells assessed as inhibition of TG level by Oil Red O staining based light microscopic analysis. Format: functional, cell-based.
Series [2] relates to 3T3-L1. As to the kind of experiment: Cytotoxicity against mouse 3T3-L1 cells assessed as reduction in cell viability at 20 uM by CCK-8 assay. The format is toxicity, cell-based. The following applies: 3t3-l1, 20 µM.
Series [3] has as its system 3T3-L1. As to the kind of experiment: Anti-adipogenic efficacy in mouse 3T3-L1 cells assessed as inhibition of TG level at 1 uM by Oil Red O staining based light microscopy analysis. Format: functional, cell-based.
The subject of series [4] is 3T3-L1. As to the kind of experiment: Anti-adipogenic efficacy in mouse 3T3-L1 cells assessed as reduction in PPARgamma mRNA level by RT-qPCR analysis. The format is functional, cell-based. To be noted: dose 0.1-10 µM.
Series [5] concerns 3T3-L1. As to the kind of experiment: Anti-adipogenic efficacy in mouse 3T3-L1 cells assessed as reduction in C/EBPbeta mRNA level by RT-qPCR analysis. Format: functional, cell-based. The following applies: dose 0.1-10 µM.
Series [6] relates to 3T3-L1. As to the kind of experiment: Anti-adipogenic efficacy in mouse 3T3-L1 cells assessed as reduction in FAS mRNA level by RT-qPCR analysis. Format: functional, cell-based. To be noted: dose 0.1-10 µM.
The subject of series [7] is 3T3-L1. The experiment in a line: Anti-adipogenic efficacy in mouse 3T3-L1 cells assessed as reduction in SCD-1 mRNA level by RT-qPCR analysis. The format is functional, cell-based. To be noted: dose 0.1-10 µM.
Series [8] relates to 3T3-L1. As to the kind of experiment: Anti-adipogenic efficacy in mouse 3T3-L1 cells assessed as reduction in PPARgamma protein level by Western blot analysis. The format is functional, cell-based. To be noted: dose 0.1-10 µM.
In series [9] the test system is 3T3-L1. The experiment in a line: Anti-adipogenic efficacy in mouse 3T3-L1 cells assessed as reduction in C/EBPbeta protein level by Western blot analysis. The following applies: dose 0.1-10 µM. The format is functional, cell-based.
Series [10] has as its system 3T3-L1. The experiment in a line: Anti-adipogenic efficacy in mouse 3T3-L1 cells assessed as reduction in FAS protein level by Western blot analysis. The format is functional, cell-based. To be noted: dose 0.1-10 µM.
Series [11] concerns 3T3-L1. As to the kind of experiment: Anti-adipogenic efficacy in mouse 3T3-L1 cells assessed as reduction in SCD-1 protein level by Western blot analysis. The format is functional, cell-based. To be noted: dose 0.1-10 µM.
Series [12] relates to 3T3-L1. The experiment in a line: Anti-adipogenic efficacy in mouse 3T3-L1 cells assessed as increase in p-AMPK level at 0.1 to 10 uM by Western blot analysis. The format is functional, cell-based. To be noted: dose 0.1-10 µM.
In series [13] the test system is 3T3-L1. As to the kind of experiment: Anti-adipogenic efficacy in mouse 3T3-L1 cells assessed as increase in p-ACC level at 0.1 to 10 uM by Western blot analysis. The following applies: dose 0.1-10 µM. The format is functional, cell-based.

Activity calls are given as the source filed them. The rule behind the calls is not given here.

Take `C=C1C[C@]23O[C@@](O)([C@@]4(O)C[C@H](C)[C@H](OC(=O)c5ccccc5)[C@@H]4[C@H]1OC(=O)c1ccccc1)[C@]1(C)O[C@](C)(CC2=O)C[C@H]31`: the EC50 in series [1] amounted to 360 nM.

`C=C1C[C@]2(O)C(=O)C(C)(C)C[C@H]2C2=CC(=O)[C@]3(C[C@H](C)[C@H](OC(=O)c4ccccc4)[C@@H]3[C@H]1OC(=O)c1ccccc1)O2`: in series [1], the EC50 came to 200 nM.

With `CC1=C[C@@H]2C(=O)[C@]3(C=C(C)[C@H](OC(=O)C(C)C(C)C)[C@@]3(O)[C@@H]1O)[C@H](C)C[C@@H]1[C@H]2C1(C)C` (stereo not given in full), the Activity result in [2] was “Non-Toxic”; in series [4], “Dose-Dependent Effect”; in series [5] it was “Dose-Dependent Effect”; in [6], “Dose-Dependent Effect”; in series [7] it was “Dose-Dependent Effect”; in series [8] it was “Dose-Dependent Effect”. Moreover, the Activity entry in series [9], in [10] and in series [11] was “Dose-Dependent Effect” throughout. Further, the EC50 in series [1] was 600 nM. Also, the result in series [3], in series [12] and in series [13] was Active.
